The values below come from patent US20170066759A1, “AROMATIC 5-MEMBERED HETEROCYCLIC DERIVATIVE HAVING TRPV4-INHIBITING ACTIVITY” (Shionogi & Co., Ltd., priority 2012, published 2017).

For orientation: IC50 means the concentration at which inhibition is half-maximal.

Structures are written as SMILES. Some results are limits rather than exact numbers.

The target of this assay is T1, human TRPV4 (hTRPV4/CHO cells) (Homo sapiens, UniProt Q9HBA0).
T1 construct: expressed in transfected cells; host or cells: CHO-K1
T1 sequence (Q9HBA0 whole entry): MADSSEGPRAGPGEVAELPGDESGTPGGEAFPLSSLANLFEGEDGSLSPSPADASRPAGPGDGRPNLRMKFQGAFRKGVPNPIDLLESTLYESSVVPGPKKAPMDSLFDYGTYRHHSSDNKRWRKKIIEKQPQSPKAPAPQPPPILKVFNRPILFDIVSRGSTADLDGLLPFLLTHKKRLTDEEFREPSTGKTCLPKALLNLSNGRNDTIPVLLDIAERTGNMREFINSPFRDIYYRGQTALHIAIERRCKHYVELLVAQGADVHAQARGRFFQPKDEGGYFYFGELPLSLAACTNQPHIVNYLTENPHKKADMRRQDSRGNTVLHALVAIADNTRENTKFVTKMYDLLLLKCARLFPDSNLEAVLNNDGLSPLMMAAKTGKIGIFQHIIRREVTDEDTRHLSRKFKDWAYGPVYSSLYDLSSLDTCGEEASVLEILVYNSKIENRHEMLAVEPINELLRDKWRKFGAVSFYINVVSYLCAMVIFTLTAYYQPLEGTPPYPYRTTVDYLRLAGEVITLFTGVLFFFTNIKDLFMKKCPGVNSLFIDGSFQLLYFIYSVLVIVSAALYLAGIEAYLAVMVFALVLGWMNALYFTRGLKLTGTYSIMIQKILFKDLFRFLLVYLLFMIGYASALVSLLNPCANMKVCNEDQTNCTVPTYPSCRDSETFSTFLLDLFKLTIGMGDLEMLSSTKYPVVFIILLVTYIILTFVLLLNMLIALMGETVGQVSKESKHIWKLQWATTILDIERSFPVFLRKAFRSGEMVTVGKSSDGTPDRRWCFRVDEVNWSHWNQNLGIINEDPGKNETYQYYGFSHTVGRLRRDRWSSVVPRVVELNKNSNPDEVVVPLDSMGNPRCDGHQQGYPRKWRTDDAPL
Kind of assay: Test Example 1: TRPV4 inhibitory activity (IC50 value), 4α-PDD stimulation, Fluo4 calcium fluorescence (FLIPR TETRA). Conditions: Test Example 1, 4α-PDD stimulation, read-out: Test 1 IC50. The class given is cell-based.
On to `CO[C@H]1C[C@@H](C(=O)Nc2nc(-c3sc(C)nc3C)cs2)C1` [Compound I-269], for which the IC50 lay in the range of 1000 to 8000 nM.

As to `Cc1nc(C)c(-c2csc(NC(=O)CN3CCC(O)(c4ccccc4)CC3)n2)s1` [Compound I-153], the IC50 lay within 1000 to 8000 nM.

For `CCNC(=O)N1C[C@H](c2ccccc2)C[C@H]1C(=O)Nc1nc(-c2sc(C)nc2C)cs1` [Compound I-300], the IC50 fell in the range of 1000 to 8000 nM.

In the case of `Cc1nc(C)c(-c2csc(NC(=O)Cc3cccc(C(=O)NC(c4ccccc4)C(F)(F)F)n3)n2)s1` (stereo not shown) [Compound I-506], the IC50 was under 100 nM. As for `O=C(Nc1nc(-c2sc(CO)nc2CO)cs1)[C@H]1C[C@@H](OCc2ccc(Cl)cc2)C1` [Compound I-332], the IC50 lay within 100 to 1000 nM. As for `Cc1nc(C)c(-c2csc(CCOc3ccc(Br)cc3)n2)s1` [II-4], the figure is 1000 to 8000 nM; as for `Cc1nc(COC(N)=O)c(-c2csc(NC(=O)Cc3ccc(S(=O)(=O)C(F)(F)F)cc3)n2)s1` [Compound I-468], under 100 nM; as for `Cc1nc(C)c(-c2nc(NC(=O)Cc3c(F)cccc3F)sc2/C=C\c2ccccc2)s1` [Compound I-73], 1000 to 8000 nM. The result for `Cc1nc(CO)c(-c2csc(NCCc3c(F)cccc3F)n2)s1` [II-3] reads 100 to 1000 nM. The result for `Cc1nc(C)c(-c2csc(NC(=O)Cc3ccc(S(=O)(=O)N(C)c4ccc(Cl)cc4)cc3)n2)s1` [Compound I-160] reads under 100 nM; that for `Cc1nc(C)c(-c2csc(NC(=O)C3Cc4ccccc4N3C)n2)s1` (stereo not shown) [Compound I-175], 100 to 1000 nM; that for `Cc1nc(CO)sc1-c1csc(NC(=O)[C@H]2C[C@H](F)C2)n1` [Compound I-202], under 100 nM.

Consider `Cc1nc(C)c(-c2csc(NC(=O)C3CN(c4ccc(C(F)(F)F)cn4)C3)n2)s1` [Compound I-259], for which the IC50 was under 100 nM.

For `Cc1nc(C)c(-c2csc(NC(=O)C3CN(CC(F)(F)F)C3)n2)s1` [Compound I-281], the IC50 lay in the range of 100 to 1000 nM. As for `Cc1nc(C)c(-c2csc(NC(=O)[C@H]3CC[C@@H](c4ccccc4)N3)n2)s1` [Compound I-215], the figure is 100 to 1000 nM. Regarding `Cc1nc(C(=O)NCCO)c(-c2csc(NC(=O)Cc3c(F)cccc3F)n2)s1` [Compound I-182], the IC50 was in the range of 1000 to 8000 nM. As for `Cc1nc(C)c(-c2csc(NC(=O)[C@H]3C[C@@H](c4ccccc4)CN3)n2)s1` [Compound I-193], the figure is 1000 to 8000 nM; as for `Cc1nc(C)c(-c2csc(NCC(F)(F)c3ccccc3)n2)s1` [II-33], 1000 to 8000 nM; as for `NC(=O)NCc1nc(CO)sc1-c1csc(NC(=O)Cc2ccc(S(=O)(=O)C(F)(F)F)cc2)n1` [Compound I-381], 100 to 1000 nM. As for `Cc1nc(CO)oc1-c1csc(NC(=O)Cc2ccc(S(=O)(=O)C(F)(F)F)cc2)n1` [Compound I-380], the figure is 100 to 1000 nM; as for `Cc1nc(C(F)F)sc1-c1csc(NC(=O)C2CC2(F)F)n1` (stereo not shown) [Compound I-112], 1000 to 8000 nM. With `COc1cc(CC(=O)Nc2nc(-c3sc(C)nc3C)cs2)cc(C(=O)Nc2ccc(C(F)(F)F)cc2)c1` [Compound I-525], the IC50 was under 100 nM. The result for `Cc1nc(C)c(-c2nc(NC(=O)Cc3c(F)cccc3F)sc2-c2ccccc2O)s1` [Compound I-64] reads 100 to 1000 nM. The result for `Cc1nc(C)c(-c2csc(NC(=O)Cc3cccc(N(C)C(=O)c4ccccc4)c3)n2)s1` [Compound I-432] reads 100 to 1000 nM; that for `Cc1nc(C(O)CO)sc1-c1csc(NC(=O)Cc2c(F)cccc2F)n1` (stereo not shown) [Compound I-133], 1000 to 8000 nM. With `COc1ccccc1CC(=O)Nc1nc(-c2sc(C)nc2C)cs1` [Compound I-99], the IC50 is under 100 nM. As to `Cc1nc(C)c(-c2csc(NC(=O)Cc3cccc(CN(C)C)c3)n2)s1` [Compound I-101], the IC50 lay within 1000 to 8000 nM. As to `Cc1nc(CO)sc1-c1csc(NC(=O)[C@@H]2C[C@@H](c3ccccc3)CN2C(=O)OCC(F)(F)F)n1` [Compound I-314], the IC50 is under 100 nM. Regarding `Cc1nc(CO)sc1-c1csc(NC(=O)C2CC(c3ccccc3)C2)n1` (stereo not shown) [Compound I-547], the IC50 was under 100 nM. On to `CC(OC(N)=O)c1nc(CO)sc1-c1csc(NC(=O)Cc2ccc(S(=O)(=O)C(F)(F)F)cc2)n1` (single isomer, unassigned) [Compound I-479], for which the IC50 is 1000 to 8000 nM.

On to `O=C(Cc1ccc(S(=O)(=O)C(F)(F)F)cc1)Nc1nc(-c2sc(CO)nc2CCC(=O)N2CCOCC2)cs1` [Compound I-363], for which the IC50 was in the range of 100 to 1000 nM. For the molecule `Cc1nc(COCC(F)(F)F)sc1-c1csc(NC(=O)Cc2ccc(S(=O)(=O)C(F)(F)F)cc2)n1` [Compound I-460], the IC50 was in the range of 1000 to 8000 nM. `Cc1nc(C)c(-c2csc(NC(=O)C3CC3(F)F)n2)s1` (stereo not shown) [Compound I-120]: the half-inhibitory concentration (IC50) is 1000 to 8000 nM. For the molecule `NC(=O)Cc1nc(CO)sc1-c1csc(NC(=O)Cc2ccc(S(=O)(=O)C(F)(F)F)cc2)n1` [Compound I-358], the IC50 was in the range of 100 to 1000 nM. As for `CCOc1cn(CC(=O)Nc2nc(-c3sc(C)nc3C)cs2)nn1` [Compound I-431], the figure is 1000 to 8000 nM; as for `Cc1nc(C)c(-c2nc(NC(=O)Cc3c(F)cccc3F)sc2C(=O)Nc2ccccc2Cl)s1` [Compound I-86], 1000 to 8000 nM. Consider `Cc1nc(C)c(-c2csc(NC(=O)[C@@H]3CC[C@H](c4ccccc4)N3)n2)s1` [Compound I-216], for which the IC50 lay within 100 to 1000 nM. For the molecule `O=C(Nc1nc(-c2sc(CO)nc2CO)cs1)C1CN(c2ccccc2)C1` [Compound I-371], the IC50 was 100 to 1000 nM.

Regarding `Cc1nc(C)c(-c2csc(NC(=O)Cc3cccc(C(=O)Nc4ccccc4F)n3)n2)s1` [Compound I-505], the IC50 is under 100 nM.

For the molecule `O=C(Nc1nc(-c2sc(CO)nc2CO)cs1)C1CC(c2ccccc2)C1` (stereo not shown) [Compound I-546], the IC50 lay within 100 to 1000 nM. For the molecule `Cc1nc(CO)sc1-c1csc(NC(=O)C2Oc3ccc(Cl)cc3O2)n1` (racemic) [Compound I-238], the IC50 is under 100 nM.

With `Cc1nc(C)c(-c2csc(NC(=O)[C@H]3CCN(c4ncc(C(F)(F)F)cn4)C3)n2)s1` [Compound I-388], the IC50 is under 100 nM. In the case of `Cc1nc(C)c(-c2csc(NC(=O)Cn3cc(-c4ccc(Cl)cc4)nn3)n2)s1` [Compound I-423], the IC50 was under 100 nM. Regarding `Cc1nc(CO)sc1-c1csc(NC(=O)[C@H]2C[C@@H](c3ccc(C(F)(F)F)cc3)C2)n1` [Compound I-405], the IC50 was under 100 nM. As for `Cc1nc(C)c(-c2csc(NC(=O)[C@H]3C[C@H](c4ccccc4)CN3C(=O)OC(C)(C)C)n2)s1` [Compound I-245], the IC50 was under 100 nM. As for `O=C(Nc1nc(-c2sc(CO)nc2CO)cs1)C1CC(Oc2ccc(C(F)(F)F)cc2)C1` (stereo not shown) [Compound I-330], the figure is under 100 nM; as for `Cc1nc(CO)sc1-c1csc(NC(=O)C2CC(=O)C2)n1` [Compound I-267], 1000 to 8000 nM; as for `CC(=O)Nc1nc(-c2sc(C)nc2C)cs1` [Compound I-480], 1000 to 8000 nM. The result for `COC(=O)c1cccc(CC(=O)Nc2nc(-c3sc(C)nc3C)cs2)c1` [Compound I-488] reads under 100 nM; that for `Cc1nc(C)c(-c2csc(NC(=O)Cn3cc(C4CCCCC4)nn3)n2)s1` [Compound I-190], under 100 nM. As for `Cc1nc(CO)sc1-c1csc(NC(=O)[C@@H]2C[C@@H](c3ccccc3)CN2C(=O)OC(C)C)n1` [Compound I-315], the figure is under 100 nM. As for `Cc1nc(C)c(-c2csc(NC(=O)[C@H]3C[C@@H](OCc4ccc(C(F)(F)F)cc4)C3)n2)s1` [Compound I-354], the IC50 was under 100 nM. As to `Cc1nc(C)c(-c2csc(NC(=O)Cc3ccc(S(=O)(=O)C(F)(F)F)cc3)n2)s1` [Compound I-117], the IC50 was in the range of 100 to 1000 nM.

For `Cc1nc(C)c(-c2csc(NC(=O)Cn3cc(-c4cccc(Cl)c4)cn3)n2)s1` [Compound I-146], the IC50 was under 100 nM. As for `Cc1nc(C)c(-c2csc(NC(=O)C3CN(S(=O)(=O)c4ccc(Cl)cc4Cl)C3)n2)s1` [Compound I-503], the figure is under 100 nM; as for `Cc1nc(CO)sc1-c1csc(NC(=O)C2CCN(c3ccccc3)C2)n1` (stereo not shown) [Compound I-185], under 100 nM; as for `Cc1nc(CS(=O)(=O)C(F)(F)F)c(-c2csc(NC(=O)Cc3ccc(S(=O)(=O)C(F)(F)F)cc3)n2)s1` [Compound I-486], 100 to 1000 nM.

As for `Cc1nc(C)c(-c2csc(NC(=O)Cn3cc(-c4ccccc4Cl)cn3)n2)s1` [Compound I-145], the IC50 was under 100 nM. Turning to `O=C(Cc1ccc(S(=O)(=O)C(F)(F)F)cc1)Nc1nc(-c2sc(CO)nc2CN2CCOCC2)cs1` [Compound I-385], the IC50 was in the range of 100 to 1000 nM. Regarding `Cc1nc(C)c(-c2csc(NC(=O)Cc3cc(OCCO)cc(C(=O)N[C@H](c4ccccc4)C(F)(F)F)c3)n2)s1` [Compound I-515], the IC50 is 100 to 1000 nM. Take `Cc1nc(C)c(-c2csc(NC(=O)Cn3cc(-c4cccnc4)cn3)n2)s1` [Compound I-148]: the IC50 lay in the range of 100 to 1000 nM.

With `Cc1nc(C)c(-c2csc(NC(=O)C(C)c3c(F)cccc3F)n2)s1` (stereo not shown) [Compound I-102], the IC50 is 100 to 1000 nM. With `Cc1nc(C)c(-c2csc(NC(=O)C3CC4(C3)CC(F)(F)C4)n2)s1` [Compound I-470], the IC50 was under 100 nM. The result for `O=C(Nc1nc(-c2cccs2)cs1)C1CC(F)C1` (stereo not shown) [II-7] reads 1000 to 8000 nM; that for `Cc1nc(C)c(-c2csc(NC(=O)C3CCN(c4ncc(C(F)(F)F)cn4)CC3)n2)s1` [Compound I-379], under 100 nM.

With `NC(=O)CCc1nc(CO)sc1-c1csc(NC(=O)Cc2ccc(S(=O)(=O)C(F)(F)F)cc2)n1` [Compound I-407], the IC50 fell in the range of 100 to 1000 nM. The result for `Cc1nc(C(C)O)sc1-c1csc(NC(=O)[C@H]2C[C@H](F)C2)n1` (mixture of isomers) [Compound I-298] reads 1000 to 8000 nM; that for `Cc1nc(CO)sc1-c1csc(NC(=O)/C=C/c2ccc(Cl)cc2)n1` [Compound I-466], 100 to 1000 nM. For `Cc1nc(C)c(-c2csc(NC(=O)[C@@H]3C[C@@H](Oc4ccccc4)CN3C(=O)OC(C)(C)C)n2)s1` [Compound I-242], the IC50 was under 100 nM. As to `Cc1nc(C)c(-c2csc(NC(=O)Cc3cc(C(=O)N[C@H](c4ccccc4)C(F)(F)F)cc(-c4nnn[nH]4)c3)n2)s1` [Compound I-520], the IC50 is 1000 to 8000 nM.
